The subject of one experiment is HEK293 cells. Briefly: Tunicamycin assay (cell viability under ER stress, WST-8). Conditions: for EC50: Homo sapiens, HEK293, read-out: EC50 (dose-response curve, Hill equation); for EC50 / Concentration at which activity was shown: tunicamycin 5.0 μg/mL 48 h. The arrangement: key to Efficacy 5 μM (ER stress inhibition activity) / Efficacy 25 μM (ER stress inhibition activity) / Efficacy 100 μM (ER stress inhibition activity): “−” indicates no activity; “+” indicates weak activity; “++” indicates strong activity. Type of experiment: cell-based. As for the experimental part:
HEK293 cells were seeded in 96-well plates ([…]) and incubated at 37° C. for 2 hours. The medium was then replaced with 100 μL of DMEM ([…]) containing self-assembling chemicals (20 or more compounds, including compounds of the present disclosure) and 1% DMSO. After incubation with any one of compounds 1 to 6 at a given concentration for 12 to 18 hours, HEK293 cells were treated with tunicamycin (5 μg/mL) or thapsigargin (10 μM) for 48 hours, and cell viability was measured using a WST-8 cell counting kit (Dojindo Laboratories).
Produced compounds XD8 to XD28 were subjected to a tunicamycin assay in the same manner as in Examples 1 to 9. Specifically, HEK293 cells were first seeded in a 96-well plate (1×10^4 cells/well) and incubated at 37° C. for 2 hours. The medium was then replaced with 100 μL of DMEM (10% FBS) containing a self-assembling chemical (each of compounds XD8 to XD28) and […]. After incubation with any of compounds XD8 to XD28 at a concentration of 5.0 μM, 25 μM, or 100 μM for 12 to 18 hours, HEK293 cells were treated with tunicamycin (5 μg/mL) for 48 hours, followed by measuring cell viability by using a WST-8 cell counting kit (Dojindo Laboratories).
On the technique in general: Tetrazolium dyes change colour on reduction, which living cells bring about.

A further experiment has as its target BSA (Bos taurus, UniProt P02769). Briefly: Native PAGE analysis of heat-induced BSA denaturation. Particulars: 75° C. 1 h; compounds 100 μM, PBA 10 mM. Type of experiment: biochemical. As for the experimental part:
Samples were subjected to native PAGE analysis using 8% acrylamide gels in 0.1 M Tris-HCl, pH of 7.8 (cathode) and 68 mM glycine, 53 mM Tris-HCl, pH of 8.9 (anode). After staining the gel with Coomassie Brilliant Blue, images were taken using an ImageQuant LAS500 imager (Cytiva).

A further experiment relates to iFECD. Briefly: TGF-β2-induced cell damage in iFECD (phase-contrast microscopy). Type of experiment: cell-based, human. Particulars: pretreatment 24 h, TGF-β2 10 ng/ml; compound 1 1-100 μM, compound 6 10 nM-1 μM. As for the experimental part:
The medium was removed from the culture dish, in which iFECD was being cultured, and 1×PBS(−) that had been pre-warmed to 37° C. was added to wash the cells. This procedure was performed twice. Again, 1×PBS(−) was added, and the cells were incubated at 37° C. (5% CO2) for 3 minutes. After the PBS(−) was removed, 0.05% Trypsin-EDTA (Nacalai Tesque, 32778-34) was added, and the cells were incubated at 37° C. ([…]) for 5 minutes. Thereafter, the cells were suspended in a medium and centrifuged at 1500 rpm for 3 minutes to recover the cells. The medium used was DMEM (Nacalai Tesque, 08456-36)+10% FBS (Biowest, S1820-500)+1% P/S (Nacalai Tesque, 26252-94).
iFECD cells were seeded in a 12-well plate at a density of 0.5×10^5 cells per well and cultured at 37° C.
The same method as described in the Materials and Methods section in Example 11-1 was used, except that compound 6 was used instead of compound 1, and the amount of iFECD seeded in a 12-well plate was changed from 0.5×10^5 cells per well to 0.9×10^5 cells per well.

Another experiment relates to BiP. Briefly: Quantitative RT-PCR of ER stress-related genes, BiP. The format is cell-based. Conditions: pretreatment 10 h, tunicamycin 1.0 μg/mL 24 h. How it is done:
First, total RNA was isolated using ISOGEN (tradename of Nippon Gene Co., Ltd.). cDNA was prepared using a Prime Script (trade name) first-strand cDNA synthesis kit (TaKaRa). qRT-PCR was performed with Fast SYBR Green Master Mix (Thermo Fisher) on a QuantStudio 3 real-time PCR system (Thermo Fisher). The copy number of each transcript is expressed relative to β-actin. The sequences of the primers (forward and reverse) are as follows: […]
The ability to alleviate endoplasmic reticulum (ER) stress of compound 1 was examined in HEK293 cells. FIGS. 1 and 2 show the biological activity of compound 1 for decreasing cytotoxicity under ER stress. […] Error bars represent s.d. (n=3). Statistical analysis was performed according to one-way ANOVA and a Dunnett's test using R software. […] To further study the effect of compound 1 on ER stress, mRNA levels of typical UPR genes, such as ATF4, s-XPB1, CHOP, BiP, and ERDJ4, were examined. In addition to compound 1, compound 6 was also tested in the same experiment. […] The quantitative RT-PCR was performed according to the method described above. HEK293 cells were treated with compound 1 (100 μM) for 10 hours and then incubated with tunicamycin (1.0 μg/mL) for 24 hours. Isolated RNA samples were subjected to reverse transcription and quantitative RT-PCR. […]

Results on two compounds are retold here after patent US20260070921A1, “COMPOUND, ENDOPLASMIC RETICULUM STRESS INHIBITOR, PHARMACEUTICAL PRODUCT, OPHTHALMIC AGENT, EYE DROPS, COMPOSITION, AND METHOD FOR PRODUCING COMPOUND” (KYOTO UNIVERSITY, priority 2022, published 2026).

Sequence of BSA (P02769 25-607): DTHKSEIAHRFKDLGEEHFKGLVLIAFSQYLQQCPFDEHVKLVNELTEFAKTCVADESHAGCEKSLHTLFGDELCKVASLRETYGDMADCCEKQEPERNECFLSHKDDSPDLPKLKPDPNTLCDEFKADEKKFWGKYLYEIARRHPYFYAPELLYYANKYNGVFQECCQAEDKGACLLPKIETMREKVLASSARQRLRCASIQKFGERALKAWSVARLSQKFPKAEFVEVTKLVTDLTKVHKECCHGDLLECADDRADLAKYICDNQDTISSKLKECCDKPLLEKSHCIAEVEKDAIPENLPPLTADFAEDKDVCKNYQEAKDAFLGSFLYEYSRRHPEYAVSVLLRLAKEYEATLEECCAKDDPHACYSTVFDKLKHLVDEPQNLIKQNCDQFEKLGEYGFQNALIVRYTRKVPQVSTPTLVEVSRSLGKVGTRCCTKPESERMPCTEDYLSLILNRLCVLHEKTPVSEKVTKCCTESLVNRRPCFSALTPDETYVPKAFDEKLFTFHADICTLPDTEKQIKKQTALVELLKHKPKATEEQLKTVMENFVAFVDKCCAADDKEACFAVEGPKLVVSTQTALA

For the compound `NS(=O)(=O)c1ccc(Nc2ccn3c(n2)nc(=O)c2sc4cc(F)ccc4c23)cc1` [compound 1], the “Cell viability under ER stress” value in the experiment on HEK293 cells (100 μM pre-incubation 12 h, then thapsigargin 10 μM or tunicamycin 5.0 μg/mL 48 h) is given as “enhanced cell viability under ER stress conditions”. Further, in the experiment on HEK293 cells, the EC50 was found to be 38.1 µM and the “Concentration at which activity was shown” value was found to be 100 µM. Besides, at BSA, the “Inhibition of heat-induced denaturation of BSA” value is reported as “does not exhibit activity to inhibit the thermal denaturation of BSA”. In the experiment with iFECD, the “Cell damage induced by recombinant human TGF-β2” value is listed as “limited damage to corneal endothelial cells”. Further, the “Effect on BiP mRNA levels” value in the experiment with BiP was “limited effect”.

With `COc1ccc2c(c1)sc1c(=O)nc3nc(Nc4ccc(S(N)(=O)=O)cc4)ccn3c12` [compound 6], in the experiment with HEK293 cells, the EC50 is 13.7 µM and the “Concentration at which activity was shown” value amounted to 25 µM. Also, in the experiment with HEK293 cells (compound 5 μM 12 to 18 h, then tunicamycin 5 μg/mL 48 h), the “Efficacy 5 μM (ER stress inhibition activity)” value is “−”. Also, the “Efficacy 25 μM (ER stress inhibition activity)” value with HEK293 cells (compound 25 μM 12 to 18 h, then tunicamycin 5 μg/mL 48 h) is “++”. Also, the “Efficacy 100 μM (ER stress inhibition activity)” value in the experiment on HEK293 cells (compound 100 μM 12 to 18 h, then tunicamycin 5 μg/mL 48 h) is recorded as “++”. Besides, the “Inhibition of heat-induced denaturation of BSA” value at BSA is reported as “does not exhibit activity to inhibit the thermal denaturation of BSA”. Also, the “Cell damage induced by recombinant human TGF-β2” value with iFECD was “limited damage to corneal endothelial cells”. Also, in the experiment with BiP, the “Effect on BiP mRNA levels” value was “limited effect”.

One may read the EC50 as the midpoint of the concentration-response curve.
